Results from ChEMBL document CHEMBL1777780, “Discovery of XEN907, a spirooxindole blocker of NaV1.7 for the treatment of pain” (Bioorg Med Chem Lett, 2011).

How the values were obtained:
[1] = Permeability from apical to basolateral side in human Caco2 cells; type: ADME, cell-based; conditions: Caco-2, read-out: permeability
[2] = Permeability from basolateral to apical side in human Caco2 cells; type: ADME, cell-based; conditions: Caco-2, read-out: permeability
[3] = Volume of distribution at steady state in Lewis rat at 3 mg/kg, iv; type: ADME, organism-based; design: dose 3 mg/kg, route intravenous; conditions: in vivo, read-out: Vdss
[4] = Tmax in Lewis rat at 10 mg/kg, po; type: ADME, organism-based; design: dose 10 mg/kg, route oral; conditions: in vivo
[5] = Metabolic stability in dog hepatocytes assessed as compound remaining after 2 hrs; type: ADME, cell-based, Canis lupus familiaris, Hepatocyte; conditions: read-out: Stability
[6] = Metabolic stability in rat hepatocytes assessed as compound remaining after 2 hrs; type: ADME, cell-based, Hepatocyte; conditions: read-out: Stability
[7] = AUClast in Lewis rat at 3 mg/kg, iv; type: ADME, organism-based; design: time 0 - last, dose 3 mg/kg, route intravenous; conditions: plasma
[8] = Metabolic stability in human hepatocytes assessed as compound remaining after 2 hrs; type: ADME, cell-based, Hepatocyte; conditions: read-out: Stability
[9] = AUClast in Lewis rat at 10 mg/kg, po; type: ADME, organism-based; design: time 0 - last, dose 10 mg/kg, route oral; conditions: plasma
[10] = Half life in Lewis rat at 3 mg/kg, iv; type: ADME, organism-based; design: dose 3 mg/kg, route intravenous; conditions: in vivo
[11] = Clearance in Lewis rat at 3 mg/kg, iv; type: ADME, organism-based; design: dose 3 mg/kg, route intravenous; conditions: in vivo
[12] = Cmax in Lewis rat at 10 mg/kg, po; type: ADME, organism-based; design: dose 10 mg/kg, route oral; conditions: in vivo
[13] = Cmax in Lewis rat at 3 mg/kg, iv; type: ADME, organism-based; design: dose 3 mg/kg, route intravenous; conditions: in vivo
[14] = Oral bioavailability in Lewis rat at 10 mg/kg; type: ADME, organism-based; conditions: in vivo

Structure (SMILES)	Papp A→B [1] [×10⁻⁶ cm/s]	Papp B→A [2] [×10⁻⁶ cm/s]	further results
CCCCCN1C(=O)C(C)(c2ccc3c(c2)OCO3)c2ccccc21 (configuration not stated)	2.4	3.6	
CCCCCN1C(=O)C(N)(c2ccc3c(c2)OCO3)c2ccccc21 (configuration not stated)	22	22.3	
O=C1N(CC2CCC2)c2ccccc2C1(O)c1ccc2c(c1)OCO2 (configuration not stated)	21.7	21.1	
CCCCCN1C(=O)C(O)(c2ccc3c(c2)OCO3)c2ccccc21 (configuration not stated)	28.9	25.4	
O=C1N(CCC2CC2)c2ccccc2C1(O)c1ccc2c(c1)OCO2 (configuration not stated)	19.9	19.8	
O=C1N(Cc2ccc3c(c2)OCO3)c2ccccc2C1(O)c1ccc2c(c1)OCO2 (configuration not stated)	7.7	12.1	
O=C1N(Cc2ccc(Cl)cc2)c2ccccc2C1(O)c1ccc2c(c1)OCO2 (configuration not stated)	9	10.9	
COc1ccc(CN2C(=O)C(O)(c3ccc4c(c3)OCO4)c3ccccc32)cc1 (configuration not stated)	6.5	11.9	
CCC(C)CCN1C(=O)C(O)(c2ccc3c(c2)OCO3)c2ccccc21 (configuration not stated)	10.5	11.5	
O=C1N(Cc2ccc(C(F)(F)F)cc2)c2ccccc2C1(O)c1ccc2c(c1)OCO2 (configuration not stated)	5.4	7.9	
CCCCCN1C(=O)C2(COc3cc4c(cc32)OCO4)c2ccccc21 (configuration not stated)	5.9	7.2	Vd [3]: 35 L/kg; Tmax [4]: 0.33 h; remaining at 2 h [5]: 46%; remaining at 2 h [6]: 21%; AUC(0-t) [7]: 320 ng·h/mL; remaining at 2 h [8]: 34%; AUC(0-t) [9]: 143 ng·h/mL; half-life [10]: 2.6 h; clearance [11]: 157 mL/min/kg; Cmax [12]: 35 ng/mL; Cmax [13]: 953 ng/mL; bioavailability [14]: 13%
O=C1N(Cc2ccc(Cl)cc2)c2ccccc2C1(O)c1ccc2c(c1)OCCO2 (configuration not stated)	1.9	3.5	
O=C1N(Cc2ccc(Cl)cc2)c2ccccc2C1(O)c1ccccc1 (configuration not stated)	13.1	12.5	
O=C1N(Cc2ccccc2)c2ccccc2C1(O)c1ccc2c(c1)OCO2 (configuration not stated)	9.3	13.6	
CCCCCN1C(=O)C2(CCc3cc4c(cc32)OCO4)c2ccccc21 (configuration not stated)	1.1	1.6	
